# Data published in ChEMBL document CHEMBL1126055, “A nonpromoting phorbol from the samoan medicinal plant Homalanthus nutans inhibits cell killing by HIV-1” (J Med Chem, 1992).
# Legend:
# [1] = target: Epidermal growth factor receptor (Mus musculus) (UniProt Q01279); test: Inhibition of epidermal growth factor binding in C3H10T1/2 cells; type: functional, cell-based; details: C3H 10T1/2
# [2] = Displacement of [3H]PDBu from Protein kinase C in vitro; parameters: species or system Mus musculus
# C3H 10T1/2 = test: Inhibition of arachidonic acid metabolite release in C3H10T1/2 cells; type: functional, Mus musculus
# Sequence of Epidermal growth factor receptor (Mus musculus) (Q01279 whole entry): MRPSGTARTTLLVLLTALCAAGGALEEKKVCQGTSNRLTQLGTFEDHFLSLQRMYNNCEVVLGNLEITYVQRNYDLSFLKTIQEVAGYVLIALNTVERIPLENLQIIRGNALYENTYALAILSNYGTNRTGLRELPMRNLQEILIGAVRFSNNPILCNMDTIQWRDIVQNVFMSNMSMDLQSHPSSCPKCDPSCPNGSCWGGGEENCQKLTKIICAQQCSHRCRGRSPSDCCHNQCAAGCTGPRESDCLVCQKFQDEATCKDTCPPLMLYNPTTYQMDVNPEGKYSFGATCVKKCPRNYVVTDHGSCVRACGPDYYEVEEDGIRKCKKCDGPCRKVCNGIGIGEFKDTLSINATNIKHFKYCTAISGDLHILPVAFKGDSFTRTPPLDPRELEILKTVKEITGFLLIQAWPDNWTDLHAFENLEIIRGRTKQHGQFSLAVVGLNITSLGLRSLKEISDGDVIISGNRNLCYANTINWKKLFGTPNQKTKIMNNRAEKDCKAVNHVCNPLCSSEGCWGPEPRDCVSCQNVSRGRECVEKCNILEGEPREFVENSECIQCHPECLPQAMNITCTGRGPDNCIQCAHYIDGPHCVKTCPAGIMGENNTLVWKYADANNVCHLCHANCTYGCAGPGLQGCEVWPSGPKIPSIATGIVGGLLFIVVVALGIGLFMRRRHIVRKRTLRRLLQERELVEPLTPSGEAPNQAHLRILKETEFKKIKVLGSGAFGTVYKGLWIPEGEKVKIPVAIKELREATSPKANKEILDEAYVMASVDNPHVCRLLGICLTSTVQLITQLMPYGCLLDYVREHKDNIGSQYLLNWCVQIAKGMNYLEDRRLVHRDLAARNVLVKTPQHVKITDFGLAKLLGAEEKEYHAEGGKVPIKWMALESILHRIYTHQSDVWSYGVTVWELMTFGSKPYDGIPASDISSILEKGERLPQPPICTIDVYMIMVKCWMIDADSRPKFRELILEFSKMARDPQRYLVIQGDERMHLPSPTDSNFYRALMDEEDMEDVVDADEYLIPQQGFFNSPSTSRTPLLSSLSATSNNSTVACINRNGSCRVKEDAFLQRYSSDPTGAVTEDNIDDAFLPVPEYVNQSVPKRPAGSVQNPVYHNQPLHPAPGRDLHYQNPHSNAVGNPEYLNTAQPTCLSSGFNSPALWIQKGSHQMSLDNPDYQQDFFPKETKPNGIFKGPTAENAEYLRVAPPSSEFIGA
compound,measurement,setting,value
CC(=O)O[C@@]12C[C@@H](C)[C@@]3(O)[C@@H](C=C(CO)C[C@]4(O)C(=O)C(C)=C[C@@H]34)[C@@H]1C2(C)C [PROSTRATIN],Effective concentration,[1],220 nM
same,Ki,[2],12.5 nM
same,Effective concentration,C3H 10T1/2,1100 nM
